Our source for the Ki and IC50 values is US10131679B2, “Substituted dihydropyrrolopyrazole compound” (UBE INDUSTRIES, LTD., priority 2014, dated 2018).

The target of one experiment is T1, CDK7 (Homo sapiens, UniProt P50613).
T1 construct: purchased Carna Biosciences, Inc. 04-108
In words: CDK7 enzyme inhibition test. The experiment is classed as biochemical. The conditions noted are these: Ki=IC50/(1+S/Km); 33P bound to MBP, [γ-33P]ATP, 30° C. for 20 minutes; read-out: Ki value of CDK7 inhibitory activity. The procedure: CDK7 Enzyme Inhibition Test
The preparation of a buffer solution was performed by mixing a N-2-hydroxyethylpiperazine-N′-2-ethanesulfonic acid buffer solution (HEPES buffer solution) (pH 7.4), dithiothreitol (DTT), Triton X-100, and magnesium chloride (MgCl2). A 500 μM [γ-^33P]ATP solution was used by diluting a 10 mM ATP solution and a commercially available [γ-^33P]ATP solution (manufactured by PerkinElmer, Inc., Code No. NEG-302H) with the buffer solution. A CDK7 solution was used by diluting commercially available CDK7 (manufactured by Carna Biosciences, Inc., Catalog No. 04-108) with the buffer solution. A substrate solution was used by diluting myelin basic protein (MBP) with the buffer solution. As for the preparation of a reaction solution, the buffer solution, the 500 μM [γ-^33P]ATP solution, the CDK7 solution, and the substrate solution were mixed at 4° C. to obtain a reaction solution.
CDK7 enzyme reaction was performed by adding 5 μL of a test compound solution prepared with 10% dimethyl sulfoxide (DMSO)/90% injectable distilled water, and 45 μL of the reaction solution to a 1.5 mL microtube at 4° C. and reacting in the microtube at 30° C. for 20 minutes in a water bath incubator. After the reaction, a 10% aqueous trichloroacetic acid (TCA) solution was added to each microtube while cooled to 4° C., and mixed to terminate the reaction. The resultant was left standing at 4° C. for 10 minutes and then centrifuged in a centrifuge, and the supernatant was discarded. Next, a 2% aqueous TCA solution was added, mixed, and then centrifuged in a centrifuge, and the supernatant was discarded. This washing operation was performed twice. After the washing, precipitates were dissolved in a 1 N aqueous sodium hydroxide (NaOH) solution, and the energy quantity (radioactivity) of the reaction product was measured with a liquid scintillation counter.
The calculation of the inhibitory activity of the test compound against CDK7 was performed as a test compound concentration inhibiting 50% of the amount of ^33P bound to MBP (IC50 value) by using EXSUS (version 8.0.0 or version 8.0.1, manufactured by CAC Exicare Corp.).
The calculation of a Ki value was performed according to the following calculation expression. S means the concentration of ATP contained in the reaction solution, and Km means a Michaelis-Menten constant. Ki=IC50/(1+S/Km)

The test system of experiment [1] is human large intestine cancer cell line (HCT-116). Nature of the experiment: Human large intestine cancer (HCT-116) cell growth inhibition test. In kind it is cell-based. To be noted: 72 h, HCT-116, culture for 3 days, sulforhodamine B absorbance. On the procedure: Human Large Intestine Cancer (HCT-116) Cell Growth Inhibition Test
The measurement of a human large intestine cancer cell growth inhibitory effect was carried out by modifying the method of Simak et al. (Cancer Research, 69, 6208 (2009)).
A human large intestine cancer cell line (HCT-116) (manufactured by DS Pharma Biomedical Co., Ltd., Cat. No. EC91091005) was cultured in McCoy's 5a (manufactured by GIBCO/Thermo Fisher Scientific, Inc., REF. 16600-082) medium containing 10% FBS (manufactured by GIBCO/Thermo Fisher Scientific, Inc., REF. 10082-147) and 1% penicillin/streptomycin/amphotericin B (manufactured by GIBCO/Thermo Fisher Scientific, Inc., REF. 15240-096) and inoculated at 1.0×10^3 cells/well in a 96-well plate (manufactured by Corning Inc., REF. 353072). After overnight culture in a carbon dioxide incubator, it was replaced with a fresh McCoy's 5a medium containing 10% FBS on the next day, and a test compound dissolved in DMSO (manufactured by Wako Pure Chemical Industries, Ltd., Code No. 043-07216) (final DMSO concentration: 0.1%) was added and left standing in a carbon dioxide incubator. After culturing for 3 days, the absorbance of each well was measured by using In Vitro Toxicology Assay Kit Sulforhodamine B based (manufactured by Sigma-Aldrich Co. LLC., Pcode 1001910706).
The rate of inhibition of cell growth at each concentration was calculated from the test compound concentration and the absorbance of sulforhodamine B, and the concentration of the test compound necessary for inhibiting 50% of cell growth (IC50 value) was calculated by using EXSUS (version 8.0.0 or version 8.0.1, manufactured by CAC Exicare Corp.).

The term Ki denotes a measure of affinity in units of concentration, obtained from inhibition or displacement. The term IC50 denotes the concentration at which inhibition is half-maximal. Low readings indicate inhibition by little substance, high ones a need for much substance.

T1 sequence (P50613 whole entry): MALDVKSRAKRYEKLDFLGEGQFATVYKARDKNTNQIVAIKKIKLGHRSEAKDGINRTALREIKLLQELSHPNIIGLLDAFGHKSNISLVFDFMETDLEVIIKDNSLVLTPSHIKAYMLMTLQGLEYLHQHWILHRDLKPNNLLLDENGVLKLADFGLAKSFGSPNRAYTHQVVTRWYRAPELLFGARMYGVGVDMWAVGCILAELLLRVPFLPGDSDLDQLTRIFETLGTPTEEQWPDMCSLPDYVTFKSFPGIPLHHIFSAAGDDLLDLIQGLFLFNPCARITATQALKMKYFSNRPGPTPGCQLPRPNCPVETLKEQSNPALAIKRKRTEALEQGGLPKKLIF
T1 sequence (P51946 whole entry partner): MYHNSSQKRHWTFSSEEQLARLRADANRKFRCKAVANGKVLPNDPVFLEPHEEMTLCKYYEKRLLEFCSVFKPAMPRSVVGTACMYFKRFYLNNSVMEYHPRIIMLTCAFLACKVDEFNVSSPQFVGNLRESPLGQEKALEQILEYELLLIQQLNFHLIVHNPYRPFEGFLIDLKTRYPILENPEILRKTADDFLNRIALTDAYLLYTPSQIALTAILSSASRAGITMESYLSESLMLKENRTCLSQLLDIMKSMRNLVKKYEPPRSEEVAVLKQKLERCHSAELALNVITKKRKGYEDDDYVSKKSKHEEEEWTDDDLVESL
T1 sequence (P51948 whole entry partner): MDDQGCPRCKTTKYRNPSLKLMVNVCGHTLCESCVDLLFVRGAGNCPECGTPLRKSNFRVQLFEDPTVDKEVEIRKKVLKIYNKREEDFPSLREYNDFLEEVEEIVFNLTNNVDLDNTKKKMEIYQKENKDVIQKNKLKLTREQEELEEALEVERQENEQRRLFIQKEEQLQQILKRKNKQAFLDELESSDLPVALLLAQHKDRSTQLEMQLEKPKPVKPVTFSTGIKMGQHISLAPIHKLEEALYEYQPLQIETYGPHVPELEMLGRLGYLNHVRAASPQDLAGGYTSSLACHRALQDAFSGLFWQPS

Consider `CO[C@H](C(=O)N1Cc2c(NC(=O)C3([Si](C)(C)C)CCC3)n[nH]c2C1(C)C)c1ccccc1` [IV-1176, (S)—N-[5-(2-Methoxy-2-phenylacetyl)-6,6-dimethyl-1,4,5,6-tetrahydropyrrolo[3,4-c]pyrazol-3-yl]-1-(trimethylsilyl)cyclobutanecarboxamide], for which the Ki at CDK7 is at most 0.05 µM. In experiment [1], this molecule showed an IC50 of at most 0.5 µM.

Take `CC(C)C(O)CNC(=O)N1Cc2c(NC(=O)C3([Si](C)(C)C)CCC3)n[nH]c2C1(C)C` (stereo not shown) [IV-446, N-(2-Hydroxy-3-methylbutyl)-6,6-dimethyl-3-[1-(trimethylsilyl)cyclobutanecarboxamido]-4,6-dihydropyrrolo[3,4-c]pyrazole-5(1H)-carboxamide]: the Ki at CDK7 is at most 0.05 µM. Moreover, the IC50 in experiment [1] was at most 0.5 µM.

For the molecule `COCC(C(=O)N1Cc2c(NC(=O)C3([Si](C)(C)C)CCC3)n[nH]c2C1(C)C)c1ccccc1` (stereo not shown) [IV-634, N-[5-(3-Methoxy-2-phenylpropanoyl)-6,6-dimethyl-1,4,5,6-tetrahydropyrrolo[3,4-c]pyrazol-3-yl]-1-(trimethylsilyl)cyclobutanecarboxamide], on CDK7, the Ki was at most 0.05 µM. This molecule also showed an IC50 in experiment [1] of at most 0.5 µM.

Turning to `CC1(C)c2[nH]nc(NC(=O)C3([Si](C)(C)C)CCC3)c2CN1C(=O)N[C@H](CO)Cc1ccccc1` [IV-862, (S)—N-(1-Hydroxy-3-phenylpropan-2-yl)-6,6-dimethyl-3-[1-(trimethylsilyl)cyclobutanecarboxamido]-4,6-dihydropyrrolo[3,4-c]pyrazole-5(1H)-carboxamide], the Ki at CDK7 is at most 0.05 µM. In experiment [1], this molecule returned an IC50 of at most 0.5 µM.

`CC1(C)c2[nH]nc(NC(=O)C3([Si](C)(C)C)CCC3)c2CN1C(=O)[C@H](CO)c1ccccc1` [IV-633, (S)—N-[5-(3-Hydroxy-2-phenylpropanoyl)-6,6-dimethyl-1,4,5,6-tetrahydropyrrolo[3,4-c]pyrazol-3-yl]-1-(trimethylsilyl)cyclobutanecarboxamide]: the Ki at CDK7 is at most 0.05 µM. In experiment [1], this molecule returned an IC50 of at most 0.5 µM.

`CC1(C)c2[nH]nc(NC(=O)C3([Si](C)(C)C)CCC3)c2CN1C(=O)NC[C@H](O)c1ccccc1` [IV-786, (R)—N-(2-Hydroxy-2-phenylethyl)-6,6-dimethyl-3-[1-(trimethylsilyl)cyclobutanecarboxamido]-4,6-dihydropyrrolo[3,4-c]pyrazole-5(1H)-carboxamide]: the Ki on CDK7 was at most 0.05 µM. Also, the IC50 in experiment [1] is at most 0.5 µM.

Consider `COCC(Oc1ccccc1)C(=O)N1Cc2c(NC(=O)C3([Si](C)(C)C)CCC3)n[nH]c2C1(C)C` (stereo not shown) [IV-1348, N-[5-(3-Methoxy-2-phenoxypropanoyl)-6,6-dimethyl-1,4,5,6-tetrahydropyrrolo[3,4-c]pyrazol-3-yl]-1-(trimethylsilyl)cyclobutanecarboxamide], for which the Ki at CDK7 is at most 0.05 µM. Further, the IC50 in experiment [1] was at most 0.5 µM.

In the case of `CC1(C)c2[nH]nc(NC(=O)C3([Si](C)(C)C)CCC3)c2CN1C(=O)[C@@H](CO)c1ccccc1` [IV-1215, (R)—N-[5-(3-Hydroxy-2-phenylpropanoyl)-6,6-dimethyl-1,4,5,6-tetrahydropyrrolo[3,4-c]pyrazol-3-yl]-1-(trimethylsilyl)cyclobutanecarboxamide], at CDK7, the Ki is at most 0.05 µM. For the same molecule, the IC50 in experiment [1] was at most 0.5 µM.

As for `Cc1ccccc1[C@@H](CO)NC(=O)N1Cc2c(NC(=O)C3([Si](C)(C)C)CCC3)n[nH]c2C1(C)C` [IV-1067, (S)—N-[2-Hydroxy-1-(o-tolyl)ethyl]-6,6-dimethyl-3-[1-(trimethylsilyl)cyclobutanecarboxamido]-4,6-dihydropyrrolo[3,4-c]pyrazole-5(1H)-carboxamide], the Ki at CDK7 was at most 0.05 µM. The molecule also gave an IC50 in experiment [1] of at most 0.5 µM.

In the case of `CC1(C)c2[nH]nc(NC(=O)C3([Si](C)(C)C)CCC3)c2CN1C(=O)N[C@H](CO)c1ccccc1Cl` [IV-959, (S)—N-[1-(2-Chlorophenyl)-2-hydroxyethyl]-6,6-dimethyl-3-[1-(trimethylsilyl)cyclobutanecarboxamido]-4,6-dihydropyrrolo[3,4-c]pyrazole-5(1H)-carboxamide], the Ki on CDK7 was at most 0.05 µM. In experiment [1], this molecule displayed an IC50 of at most 0.5 µM.

For `C[C@@H](Oc1ccccc1)C(=O)N1Cc2c(NC(=O)C3([Si](C)(C)C)CC3)n[nH]c2C1(C)C` [III-1140, (R)—N-[6,6-Dimethyl-5-(2-phenoxypropanoyl)-1,4,5,6-tetrahydropyrrolo[3,4-c]pyrazol-3-yl]-1-(trimethylsilyl)cyclopropanecarboxamide], the Ki on CDK7 was at most 0.05 µM. The molecule further had an IC50 in experiment [1] of at most 0.5 µM.

For `CC1(C)c2[nH]nc(NC(=O)C3([Si](C)(C)C)CC3)c2CN1C(=O)[C@H](CO)c1ccccc1` [III-592, (S)—N-[5-(3-Hydroxy-2-phenylpropanoyl)-6,6-dimethyl-1,4,5,6-tetrahydropyrrolo[3,4-c]pyrazol-3-yl]-1-(trimethylsilyl)cyclopropanecarboxamide], the Ki on CDK7 was at most 0.05 µM. Moreover, the IC50 in experiment [1] is at most 0.5 µM.

For `COC(C(=O)N1Cc2c(NC(=O)C3([Si](C)(C)C)CCC3)n[nH]c2C1(C)C)c1ccc(F)cc1` (stereo not shown) [IV-1427, N-{5-[2-(4-Fluorophenyl)-2-methoxyacetyl]-6,6-dimethyl-1,4,5,6-tetrahydropyrrolo[3,4-c]pyrazol-3-yl}-1-(trimethylsilyl)cyclobutanecarboxamide], the Ki on CDK7 was at most 0.05 µM. In addition, the IC50 in experiment [1] was at most 0.5 µM.

On to `CC1(C)c2[nH]nc(NC(=O)C3([Si](C)(C)C)CCC3)c2CN1C(=O)C(CO)Oc1ccccc1` (stereo not shown) [IV-1330, N-[5-(3-Hydroxy-2-phenoxypropanoyl)-6,6-dimethyl-1,4,5,6-tetrahydropyrrolo[3,4-c]pyrazol-3-yl]-1-(trimethylsilyl)cyclobutanecarboxamide], for which the Ki on CDK7 is at most 0.05 µM. For the same molecule, the IC50 in experiment [1] was at most 0.5 µM.
